Like-named read-outs stand apart in the source and are kept apart here.
Key:
[1] = not given; remark: listed apart in the source
CDK1/CyclinB1 [2] = biological target: T1, CDK1/CyclinB1 (Homo sapiens, UniProt P06493); assay: CDK1/CyclinB1 ChEF Assay (Table A); assay type: biochemical; settings: read-out: CDK1/CCNB1 ChEF Ki: Average Ki;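 also: Ki reported in nM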
T1 construct: Wild-type, full length CDK1 in complex with wildtype, full length CyclinB1: Carna Cat #04-102; purchased Carna 04-102
Experimental: 500 nL of 50× compound in 100% DMSO is added to a 384-well low volume, white assay plate. 19.5 μL of 1.3×CDK1/CyclinB1 (Wild-type, full length CDK1 in complex with wildtype, full length CyclinB1: Carna Cat #04-102) diluted in assay buffer (50 mM Hepes, 0.01% Brij-35, 10 mM MgCl2, 0.5 mM EGTA, 1% Glycerol, and 1.2 mM DTT) is added to the plates on top of the compound and pre-incubated for 30 minutes at room temperature. Following the incubation, 5 μL of 5×Sox-chromophore (CSox) labeled peptide substrate (AQT0297, AssayQuant) & ATP diluted in assay buffer is added to the plate to initiate the reaction. The assay is incubated at room temperature for 30 min after initiation. The CSox peptide substrate is phosphorylated by CDK1/B1 upon ATP hydrolysis.
(§1) The fluorescent intensity measurement of the assay plate for all assays described above is read on a microplate reader once the assay is initiated and again at the completion of the assay. Phosphorylation of the CSox-based peptide substrate sensor results in an immediate increase in fluorescence. These raw fluorescence intensity values are normalized to calculate percent inhibition, which are fit to a four-parameter logistic curve and IC50 values are calculated. IC50 values are converted to Ki using substrate, KM^app values, and the Cheng-Prusoff equation.

CDK2/CyclinA2 [3] = biological target: T2, CDK2/CyclinA2 (Homo sapiens, UniProt P24941); assay: CDK2/CyclinA2 ChEF Assay (Table A); assay type: biochemical
T2 construct: Wild-type, full length CDK2 in complex with wildtype, full length CyclinA2: Carna Cat #04-103; purchased Carna 04-103
Experimental: 500 nL of 50× compound in 100% DMSO is added to a 384-well low volume, white assay plate. 19.5 μL of 1.3×CDK2/CyclinA2 (Wild-type, full length CDK2 in complex with wildtype, full length CyclinA2: Carna Cat #04-103 diluted in assay buffer (50 mM Hepes, 0.01% Brij-35, 10 mM MgCl2, 0.5 mM EGTA, 1% Glycerol, and 1.2 mM DTT) is added to the plates on top of the compound and pre-incubated for 30 minutes at room temperature. Following the incubation, 5 μL of 5×Sox-chromophore (CSox) labeled peptide substrate (AQT0255, AssayQuant) & ATP diluted in assay buffer is added to the plate to initiate the reaction. The assay is incubated at room temperature for 45 min after initiation. The CSox peptide substrate is phosphorylated by CDK2/A2 upon ATP hydrolysis.
as §1

CDK9/CyclinT1 [4] = biological target: T3, CDK9/CyclinT1 (Homo sapiens, UniProt P50750); assay: CDK9/CyclinT1 ChEF Assay (Table A); assay type: biochemical; design: Wild-type, full length CDK9 in complex with wildtype, full length CyclinT1: Invitrogen Cat #PV4131; purchased Invitrogen PV4131; settings: 10xKm, read-out: CDK9/CCNT1 ChEF 10xKm Ki: Average Ki
Experimental: 500 nL of 50× compound in 100% DMSO is added to a 384-well low volume, white assay plate. 19.5 μL of 1.3×CDK9/CyclinT1 (Wild-type, full length CDK9 in complex with wildtype, full length CyclinT1: Invitrogen Cat #PV4131) diluted in assay buffer (50 mM Hepes, 0.01% Brij-35, 10 mM MgCl2, 0.5 mM EGTA, 1% Glycerol, and 1.2 mM DTT) is added to the plates on top of the compound and pre-incubated for 30 minutes at room temperature. Following the incubation, 5 μL of 5×Sox-chromophore (CSox) labeled peptide substrate (AQT0449, AssayQuant) & ATP diluted in assay buffer is added to the plate to initiate the reaction. The assay is incubated at room temperature for 120 min after initiation. The CSox peptide substrate is phosphorylated by CDK9/T1 upon ATP hydrolysis.
as §1
Target sequence in this assay (P50750 whole entry): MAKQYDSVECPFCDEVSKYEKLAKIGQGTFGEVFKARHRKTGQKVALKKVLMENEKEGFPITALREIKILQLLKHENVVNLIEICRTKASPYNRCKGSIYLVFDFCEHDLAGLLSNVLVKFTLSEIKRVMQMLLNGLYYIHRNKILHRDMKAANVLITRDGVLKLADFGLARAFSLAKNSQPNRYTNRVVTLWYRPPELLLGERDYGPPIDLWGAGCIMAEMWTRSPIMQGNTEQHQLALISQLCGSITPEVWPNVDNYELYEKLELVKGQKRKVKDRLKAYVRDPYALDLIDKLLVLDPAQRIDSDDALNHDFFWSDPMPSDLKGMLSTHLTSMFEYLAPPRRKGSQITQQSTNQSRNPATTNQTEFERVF
Target sequence in this assay (O60563 whole entry partner): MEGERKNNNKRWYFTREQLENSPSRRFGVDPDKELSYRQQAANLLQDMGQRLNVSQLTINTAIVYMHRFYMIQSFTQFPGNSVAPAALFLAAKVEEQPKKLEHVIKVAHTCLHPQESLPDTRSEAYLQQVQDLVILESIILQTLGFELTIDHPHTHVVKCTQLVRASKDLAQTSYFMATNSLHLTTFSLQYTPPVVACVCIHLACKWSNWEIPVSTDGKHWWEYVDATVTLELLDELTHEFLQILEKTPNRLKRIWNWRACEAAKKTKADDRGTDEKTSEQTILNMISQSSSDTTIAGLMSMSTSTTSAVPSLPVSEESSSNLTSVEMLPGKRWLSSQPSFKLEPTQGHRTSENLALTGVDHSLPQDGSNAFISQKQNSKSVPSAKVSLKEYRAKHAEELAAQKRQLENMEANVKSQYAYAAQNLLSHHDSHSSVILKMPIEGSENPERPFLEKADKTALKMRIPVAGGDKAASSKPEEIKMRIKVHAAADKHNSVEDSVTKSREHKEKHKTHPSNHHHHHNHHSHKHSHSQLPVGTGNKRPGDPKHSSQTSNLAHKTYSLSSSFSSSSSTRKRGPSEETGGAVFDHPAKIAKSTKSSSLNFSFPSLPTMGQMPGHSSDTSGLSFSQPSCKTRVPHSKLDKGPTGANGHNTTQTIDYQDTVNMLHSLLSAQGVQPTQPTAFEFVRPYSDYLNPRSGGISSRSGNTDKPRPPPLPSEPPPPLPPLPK

CDK9/CyclinT1 [5] = biological target: T3, CDK9/CyclinT1; assay: CDK9/CyclinT1 Mobility Shift Assay (Caliper, Table B); assay type: biochemical; design: Wild-type, full length CDK9 in complex with wildtype, CyclinT1 (1-259): Biortus Cat #BP480/792/691; purchased Biortus BP480/792/691; settings: read-out: CDK9/Cyclin T1 Caliper Ki: Average Ki
Experimental: 10 nL of 2000× compound in 100% DMSO is added to a 384-well polypropylene assay plate. 15 μL of 1.3×CDK9/T1 and 1.3× fluorescent substrate (Wild-type, full length CDK9 in complex with wildtype, CyclinT1 (1-259): Biortus Cat #BP480/792/691 and FL-Peptide 34: PerkinElmer Cat #760643) diluted in kinase buffer (50 mM Hepes, 0.01% Brij-35, 10 mM MgCl2, 1 mM EGTA, 0.05% BSA, and 2 mM DTT) is added to the plates on top of the compound, mixed, and pre-incubated for 30 minutes at room temperature. The fluorescently labeled peptide substrate is phosphorylated by CDK9/T1 upon ATP hydrolysis. Following the incubation, 5 μL of 4×ATP diluted in kinase buffer is added to the plate to initiate the reaction. Following the 30-minute incubation, the reaction is stopped by adding 75 μL of stopping buffer containing 0.5 M EDTA.
(§2) The assay plate is then read on a Lab Chip EZ Reader which separates the fluorescently labeled substrate and product peptides through a mobility difference. The phosphorylation of the substrate imparts a negative charge, which allows differences in separation as both are pulled through the microfluidic chip. The ratio of substrate and product values are used to generate percent conversion. These raw percent conversion values are normalized to calculate percent inhibition, which are fit to a four-parameter logistic curve and IC50 values are calculated. IC50 values are converted to Ki using substrate, Kmapp values, and the Cheng-Prusoff equation.
Target sequence in this assay (P50750 whole entry): as the sequence (P50750 whole entry) above
Target sequence in this assay (O60563 1-259 partner limits assumed): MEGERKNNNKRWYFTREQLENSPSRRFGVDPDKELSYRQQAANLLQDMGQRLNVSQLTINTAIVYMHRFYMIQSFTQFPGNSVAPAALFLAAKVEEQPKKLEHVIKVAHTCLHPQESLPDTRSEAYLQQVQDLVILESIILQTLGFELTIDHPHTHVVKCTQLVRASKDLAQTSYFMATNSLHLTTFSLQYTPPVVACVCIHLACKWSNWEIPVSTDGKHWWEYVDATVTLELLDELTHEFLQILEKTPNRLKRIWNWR

CDK2/CyclinA2 [6] = biological target: T2, CDK2/CyclinA2; assay: CDK2/Cyclin A2 Mobility Shift Assay (Caliper, Table B); assay type: biochemical; settings: for Ki: Caliper mobility shift, 10xKm, read-out: CDK2/CCNA2 Caliper 10xKm Ki: Average Ki
Experimental: 10 nL of 2000× compound in 100% DMSO is added to a 384-well polypropylene assay plate. 15 μL of 1.3×CDK2/A2 and 1.3× fluorescent substrate (Wild-type, full length CDK2 in complex with wildtype, full length CyclinA2: Carna Cat #04-103 and FL-Peptide 18: PerkinElmer Cat #760362) diluted in kinase buffer (50 mM Hepes, 0.01% Brij-35, 10 mM MgCl2, 1 mM EGTA, 0.05% BSA, and 2 mM DTT) is added to the plates on top of the compound, mixed, and pre-incubated for 30 minutes at room temperature. The fluorescently labeled peptide substrate is phosphorylated by CDK2/A2 upon ATP hydrolysis. Following the incubation, 5 μL of 4×ATP diluted in kinase buffer is added to the plate to initiate the reaction. Following the 30-minute incubation, the reaction is stopped by adding 75 μL of stopping buffer containing 0.5 M EDTA.
as §2, with “Ki through” for “Ki”, “substrate and Km^app” for “substrate, Kmapp”

CDK1/CyclinB1 [7] = biological target: T1, CDK1/CyclinB1; assay: CDK1/Cyclin B1 Mobility Shift Assay (Caliper, Table B); assay type: biochemical; settings: read-out: CDK1/CCNB1 Caliper Ki: Average Ki
Experimental: 10 nL of 2000× compound in 100% DMSO is added to a 384-well polypropylene assay plate. 15 μL of 1.3×CDK1/B1 and 1.3× fluorescent substrate (Wild-type, full length CDK1 in complex with wildtype, full length CyclinB1: Carna Cat #04-102 and FL-Peptide 29: PerkinElmer Cat #760429) diluted in kinase buffer (50 mM Hepes, 0.01% Brij-35, 10 mM MgCl2, 1 mM EGTA, 0.05% BSA, and 2 mM DTT) is added to the plates on top of the compound, mixed, and pre-incubated for 30 minutes at room temperature. The fluorescently labeled peptide substrate is phosphorylated by CDK1/B1 upon ATP hydrolysis. Following the incubation, 5 μL of 4×ATP diluted in kinase buffer is added to the plate to initiate the reaction. Following the 30-minute incubation, the reaction is stopped by adding 75 μL of stopping buffer containing 0.5 M EDTA.
as §2

T1 sequence (P06493 whole entry): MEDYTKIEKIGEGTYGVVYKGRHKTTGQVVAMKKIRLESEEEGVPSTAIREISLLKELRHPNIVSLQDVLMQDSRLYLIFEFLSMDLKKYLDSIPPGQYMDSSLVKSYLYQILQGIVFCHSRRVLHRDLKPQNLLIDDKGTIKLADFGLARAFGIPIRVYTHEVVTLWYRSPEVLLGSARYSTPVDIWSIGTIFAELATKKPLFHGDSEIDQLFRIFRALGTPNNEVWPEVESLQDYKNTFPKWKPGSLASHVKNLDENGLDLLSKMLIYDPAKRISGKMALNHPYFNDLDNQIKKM
T1 sequence (P14635 whole entry partner): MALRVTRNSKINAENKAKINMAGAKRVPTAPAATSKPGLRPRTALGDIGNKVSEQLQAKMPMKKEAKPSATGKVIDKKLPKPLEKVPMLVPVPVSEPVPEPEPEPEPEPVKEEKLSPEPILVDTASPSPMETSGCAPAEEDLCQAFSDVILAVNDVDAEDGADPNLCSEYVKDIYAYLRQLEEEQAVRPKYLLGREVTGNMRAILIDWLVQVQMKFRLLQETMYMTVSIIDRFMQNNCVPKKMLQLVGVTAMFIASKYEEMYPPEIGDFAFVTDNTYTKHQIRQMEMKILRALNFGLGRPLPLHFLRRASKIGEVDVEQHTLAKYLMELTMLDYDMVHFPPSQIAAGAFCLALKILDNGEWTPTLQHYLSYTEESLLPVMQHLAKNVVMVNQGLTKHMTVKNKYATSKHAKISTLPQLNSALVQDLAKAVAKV

Compound	Ki (CDK2/CyclinA2 [6])	CDK2/CCNA2 Caliper 10xKm Ki: CDK2/A2 Selectivity over CDK1/B1 (CDK2/CyclinA2 [6])	CDK2/CCNA2 Caliper 10xKm Ki: CDK2/A2 Selectivity over CDK9 (CDK2/CyclinA2 [6])	Ki (CDK1/CyclinB1 [7])	also measured
CC(C)(C)n1nc2cc1[C@H]1CC[C@H](C1)OC(=O)NCCCCCCNS(=O)(=O)C1CCC(CC1)N2					ring closure, yield of all isomers (from CC(C)(C)OC(=O)NCCCCCCNS(=O)(=O)C1CCC(Nc2cc([C@H]3CC[C@@H](OC(=O)Oc4ccc([N+](=O)[O-])cc4)C3)n(C(C)(C)C)n2)CC1, other bond, DIPEA, DCE, 4.26 mM, 25.0 °C, 18.0 h, 2 steps): 50%
CC(C)(C)n1nc2cc1[C@H]1CC[C@H](C1)OC(=O)NCCOCCNS(=O)(=O)c1ccc(c(F)c1)N2					ring closure, yield of all isomers (from CC(C)(C)OC(=O)NCCOCCNS(=O)(=O)c1ccc(Nc2cc([C@H]3CC[C@@H](OC(=O)Oc4ccc([N+](=O)[O-])cc4)C3)n(C(C)(C)C)n2)c(F)c1, other bond, DIPEA, DCE, 5.25 mM, 25.0 °C, 18.0 h, 2 steps): 62.3%
Cn1ncc2c1C(=O)NCCCCCOc1nc(ncc1Br)NC1CCN(CC1)S2(=O)=O					ring closure, yield of all isomers (from Cn1ncc(S(=O)(=O)N2CCC(N)CC2)c1C(=O)NCCCCCOc1nc(Cl)ncc1Br, snar bond, K2CO3, DMSO, 6.02 mM, 110.0 °C, 2.0 h): 33%
Cn1ncc2c1C(=O)NCCCCCOc1nc(ncc1Cl)NC1CCN(CC1)S2(=O)=O					ring closure, isolated yield ([1]; from Cn1ncc(S(=O)(=O)N2CCC(N)CC2)c1C(=O)NCCCCCOc1nc(Cl)ncc1Br, snar bond, 19-membered ring, K2CO3, DMSO, 6.02 mM, 110.0 °C): 33%
NCCCCCOc1cc(Nc2ncc(C3CCC(OC(=O)Oc4ccc([N+](=O)[O-])cc4)C3)cn2)ccc1S(N)(=O)=O (stereo not shown)					ring closure, isolated yield ([1]; the molecule shown is the open-chain precursor, other bond, 20-membered ring, DIEA, DMF, 41.5 mM, 50.0 °C): 11.1%
NS(=O)(=O)c1ccc2cc1NCCCCCNC(=O)OC1CCC(C1)c1cnc(nc1)N2 (stereo not shown)					ring closure, yield of all isomers (from CC(C)(C)OC(=O)NCCCCCNc1cc(Nc2ncc(C3CCC(OC(=O)Oc4ccc([N+](=O)[O-])cc4)C3)cn2)ccc1S(=O)(=O)NC(=O)OC(C)(C)C, other bond, DIEA, DMF, 75.0 mM, 50.0 °C, 3.0 h, 2 steps): 39.5%
NS(=O)(=O)c1ccc2cc1OCCCCCNC(=O)OC1CCC(C1)c1cnc(nc1)N2 (stereo not shown)					ring closure, yield of all isomers (from NCCCCCOc1cc(Nc2ncc(C3CCC(OC(=O)Oc4ccc([N+](=O)[O-])cc4)C3)cn2)ccc1S(N)(=O)=O, other bond, DIEA, DMF, 41.5 mM, 50.0 °C, 2.0 h): 11.1%
O=C1NCCCCn2cc(cn2)S(=O)(=O)N2CCC(CC2)Nc2cc([nH]n2)[C@H]2CC[C@H](C2)O1 [Compound 94, (11S,13R,24Z,64E)-21H,61H-13-oxa-5-thia-3,11-diaza-4(4,1)-piperidina-2(5,3),6(4,1)-dipyrazola-1(1,3)-cyclopentanacyclotridecaphan-12-one 5,5-dioxide]					Ki (CDK1/CyclinB1 [2]): ≥ 100 nM; Ki (CDK2/CyclinA2 [3]; 10xKm, read-out: CDK2/CCNA2 ChEF 10xKm Ki: Average Ki): 25 to 100 nM; CDK2/CCNA2 ChEF 10xKm Ki: CDK2/A2 Selectivity over CDK9/T1 (CDK2/CyclinA2 [3]; selectivity over CDK9/T1): A (A>10); Ki (CDK9/CyclinT1 [4]): 1 to 25 nM; Ki (CDK9/CyclinT1 [5]): 25 to 100 nM
O=C1NCCCCCCCOc2cccc(n2)Nc2ncc(cn2)[C@@H]2CC[C@@H](C2)O1 [Compound 111]	25 to 100 nM	C (C<5)	B (5≤B<10)	≥ 100 nM	Ki (CDK9/CyclinT1 [5]): ≥ 100 nM
O=C1NCCCCCCOc2cccc(n2)Nc2ncc(cn2)[C@@H]2CC[C@@H](C2)O1 [Compound 112]	25 to 100 nM	B (5≤B<10)	B (5≤B<10)	≥ 100 nM	Ki (CDK9/CyclinT1 [5]): ≥ 100 nM
O=C1NCCCCCOc2cccc(n2)Nc2ncc(cn2)[C@@H]2CC[C@@H](C2)O1 [Compound 113]	≥ 100 nM	B (5≤B<10)	B (5≤B<10)	≥ 100 nM	
O=C1NCCCCOc2cccc(n2)Nc2ncc(cn2)[C@@H]2CC[C@@H](C2)O1 [Compound 114]	25 to 100 nM	B (5≤B<10)	B (5≤B<10)	≥ 100 nM	
O=C1NCCCCCCNS(=O)(=O)c2ccc(cc2)Nc2ncc(cn2)[C@@H]2CC[C@@H](C2)O1 [Compound 115]	≥ 100 nM	B (5≤B<10)	C (C<5)	≥ 100 nM	

— patent US20260200943A1, “COMPOUNDS FOR TREATING CANCER” (Genesis Therapeutics, Inc., priority 2022, published 2026)
